Experimental data as given in US20110045101A1, “FUNGICIDAL SUBSTITUTED AZOLES” (E.I. Du Pont De Nemours and Company, priority 2009, published 2011).
Marks after values point to notes of the source that are not given here.

Assays:
Type in all cases: in vivo
Details in all cases: 100 = 100% disease control
[1] = tested on: Puccinia recondita f. sp. tritici; experiment: Test I: wheat leaf rust on wheat seedlings, sprayed the day before inoculation, visual disease rating
How it was run: (§1)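 Plants received a run-off spray at 200 ppm (equivalent to 500 g/ha) or, for starred values, 40 ppm. Formulation used acetone at 3% of volume in a 50/50 acetone/water mix carrying 250 ppm Trem® 014.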

[2] = tested on: Erysiphe graminis f. sp. tritici; experiment: Test J: wheat powdery mildew on wheat seedlings, sprayed the day before inoculation, visual disease rating
How it was run: as §1

[3] = tested on: Septoria nodorum; experiment: Test F: wheat glume blotch on wheat seedlings, sprayed the day before inoculation, visual disease rating
How it was run: as §1

[4] = tested on: Puccinia recondita f. sp. tritici; experiment: Test H: wheat leaf rust, test suspension sprayed after inoculation of wheat seedlings, visual disease rating
How it was run: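 Wheat seedlings inoculated with P. recondita spores, held 24 h saturated at 20 °C, then 2 days in growth chamber at 20 °C; compound suspension (acetone/water with Trem 014) sprayed to run-off afterwards. Rated visually; 200 ppm (≈500 g/ha) unless marked *, which denotes 40 ppm.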

[5] = tested on: Alternaria solani; experiment: Test D: tomato early blight, sprayed the day before inoculation, visual disease rating
How it was run: as §1

[6] = tested on: Septoria tritici; experiment: Test G: wheat leaf blotch on wheat seedlings, sprayed the day before inoculation, visual disease rating
How it was run: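 Compounds dissolved in acetone (3% of final volume), then suspended in 50/50 acetone/water with 250 ppm Trem® 014 and sprayed to run-off on seedlings at 200 ppm (≈500 g/ha) or 40 ppm where marked. Inoculation with spores followed next day; visual rating after 48 h saturated at 24° C plus 19 days at 20° C.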

[7] = tested on: Botrytis cinerea; experiment: Test C: tomato Botrytis on tomato seedlings, sprayed the day before inoculation, visual disease rating
How it was run: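 Rate: 200 ppm sprayed to run-off, corresponding to 500 g/ha; flagged values used 40 ppm. Vehicle was aqueous acetone (1:1) plus 250 ppm surfactant, compounds predissolved in acetone at 3% of volume. Plants were tomato seedlings.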

[8] = 200 ppm, 0 = no control relative to controls

For `COc1cc(F)c(-c2c(Cl)ncn2-c2cccc(OC(F)F)c2)c(F)c1` [compound 556], which “Test I disease control rating” value [1, 8] is on record?
Its value is 100%.

And the “Test J disease control rating” value [2, 8]?
Its value is 97%.

What about the “Test F disease control rating” value [3, 8] of the same compound?
The value was 98%.

What about the “Test H disease control rating” value [4, 8] of the same compound?
Its value is 87%.

And the “Test D disease control rating” value [5, 8]?
The value was 99%.

And the “Test G disease control rating” value [6, 8]?
The value was 95%.

What about the “Test C disease control rating” value [7, 8] of the same compound?
The value was 100%.

With `COc1cc(F)c(-c2c(Cl)nc(Cl)n2Cc2ccc(Cl)nc2)c(F)c1Cl` [compound 668] as the compound, how does the “Test I disease control rating” value [1, 8] read?
The value was 85%.

What about the “Test J disease control rating” value [2, 8] of the same compound?
The value was 96%.

And the “Test F disease control rating” value [3, 8]?
The value was 91%.

And the “Test H disease control rating” value [4, 8]?
Its value is 0%.

And the “Test D disease control rating” value [5, 8]?
Its value is 99%.

What about the “Test G disease control rating” value [6, 8] of the same compound?
The value was 99%.

And the “Test C disease control rating” value [7, 8]?
The value was 100%.

What does the source list for `COc1cc(OC)cc(-n2c(C)nc(Cl)c2Cc2c(F)cc(F)cc2F)c1` [compound 534]?
Test I disease control rating [1, 8]: 0%; Test J disease control rating [2, 8]: 0%; Test F disease control rating [3, 8]: 0%; Test H disease control rating [4, 8]: 0%; Test D disease control rating [5, 8]: 0%; Test G disease control rating [6, 8]: 2%; Test C disease control rating [7, 8]: 38%

For `COc1cc(F)c(-c2c(Cl)nc(N)n2-c2ccc(Cl)cc2)c(F)c1` [compound 638], which “Test I disease control rating” value [1, 8] is on record?
Its value is 95%.

What about the “Test J disease control rating” value [2, 8] of the same compound?
Its value is 56%.

What about the “Test F disease control rating” value [3, 8] of the same compound?
The value was 55%.

And the “Test H disease control rating” value [4, 8]?
Its value is 0%.

And the “Test D disease control rating” value [5, 8]?
Its value is 99%.

What about the “Test G disease control rating” value [6, 8] of the same compound?
Its value is 99%.

And the “Test C disease control rating” value [7, 8]?
Its value is 99%.

For `COc1cc(F)c(-c2c(C)nc(Br)n2-c2ccc(OC)nc2)c(F)c1` [compound 736], which “Test I disease control rating” value [1, 8] is on record?
The value was 100%.

What about the “Test J disease control rating” value [2, 8] of the same compound?
The value was 100%.

And the “Test F disease control rating” value [3, 8]?
Its value is 97%.

What about the “Test H disease control rating” value [4, 8] of the same compound?
Its value is 99%.

What about the “Test D disease control rating” value [5, 8] of the same compound?
Its value is 100%.

What about the “Test G disease control rating” value [6, 8] of the same compound?
The value was 100%.

And the “Test C disease control rating” value [7, 8]?
The value was 99%.

Which results are given for `COc1cc(F)c(-n2c(Br)nc(C)c2-c2ccc(C)cc2)c(F)c1` [compound 525]?
Test I disease control rating ([1]; 40 ppm (marked *)): 100* %; Test J disease control rating ([2]; 40 ppm (marked *)): 98* %; Test F disease control rating ([3]; 40 ppm (marked *)): 80* %; Test H disease control rating ([4]; 40 ppm (marked *)): 68* %; Test D disease control rating ([5]; 40 ppm (marked *)): 100* %; Test G disease control rating ([6]; 40 ppm (marked *)): 98* %; Test C disease control rating ([7]; 40 ppm (marked *)): 100* %

Which “Test I disease control rating” value [1, 8] does the source give for `Cc1nc(Cl)c(Cc2c(F)cc(F)cc2F)n1-c1cc(Cl)cc(Cl)c1` [compound 540] here?
The value was 0%.

And the “Test J disease control rating” value [2, 8]?
Its value is 21%.

And the “Test F disease control rating” value [3, 8]?
The value was 0%.

What about the “Test H disease control rating” value [4, 8] of the same compound?
Its value is 0%.

What about the “Test D disease control rating” value [5, 8] of the same compound?
The value was 0%.

What about the “Test G disease control rating” value [6, 8] of the same compound?
The value was 3%.

And the “Test C disease control rating” value [7, 8]?
Its value is 15%.

For `Fc1cc(-n2c(Cl)nc(CCl)c2-c2ccc(Br)cn2)ccc1Cl` [compound 357], which “Test I disease control rating” value [1, 8] is on record?
Its value is 55%.

And the “Test J disease control rating” value [2, 8]?
The value was 0%.

And the “Test F disease control rating” value [3, 8]?
The value was 100%.

And the “Test H disease control rating” value [4, 8]?
The value was 0%.

And the “Test D disease control rating” value [5, 8]?
The value was 0%.

What about the “Test G disease control rating” value [6, 8] of the same compound?
Its value is 50%.

What about the “Test C disease control rating” value [7, 8] of the same compound?
The value was 63%.

Which results are given for `N#Cc1ccc(F)c(-c2c(Cl)nc(Cl)n2-c2ccc(F)cc2)c1F` [compound 679]?
Test I disease control rating [1, 8]: 100%; Test J disease control rating [2, 8]: 100%; Test F disease control rating [3, 8]: 99%; Test H disease control rating [4, 8]: 18%; Test D disease control rating [5, 8]: 100%; Test G disease control rating [6, 8]: 99%; Test C disease control rating [7, 8]: 100%

How did the “Test I disease control rating” value [1, 8] turn out when `Cc1cccc(-c2c(CCl)nc(Cl)n2-c2ccc(Cl)c(F)c2)n1` [compound 379] was run?
Its value is 27%.

What about the “Test J disease control rating” value [2, 8] of the same compound?
The value was 0%.

What about the “Test F disease control rating” value [3, 8] of the same compound?
Its value is 0%.

And the “Test H disease control rating” value [4, 8]?
The value was 0%.

And the “Test D disease control rating” value [5, 8]?
The value was 0%.

What about the “Test G disease control rating” value [6, 8] of the same compound?
Its value is 86%.

What about the “Test C disease control rating” value [7, 8] of the same compound?
The value was 99%.

For `COc1ccc(-c2c(Cl)nc(Br)n2-c2ccc(F)cc2)c(Cl)c1` [compound 725], which “Test I disease control rating” value [1, 8] is on record?
Its value is 91%.

What about the “Test J disease control rating” value [2, 8] of the same compound?
Its value is 98%.

And the “Test F disease control rating” value [3, 8]?
Its value is 73%.

And the “Test H disease control rating” value [4, 8]?
Its value is 15%.

What about the “Test D disease control rating” value [5, 8] of the same compound?
Its value is 99%.

And the “Test G disease control rating” value [6, 8]?
The value was 99%.

What about the “Test C disease control rating” value [7, 8] of the same compound?
Its value is 100%.

What does the source list for `COc1ccc(F)c(-c2c(Cl)nc(Cl)n2-c2ccc(C#N)cc2)c1F` [compound 552]?
Test I disease control rating [1, 8]: 46%; Test J disease control rating [2, 8]: 98%; Test F disease control rating [3, 8]: 0%; Test H disease control rating [4, 8]: 0%; Test D disease control rating [5, 8]: 100%; Test G disease control rating [6, 8]: 96%; Test C disease control rating [7, 8]: 99%

With `Fc1ccc(-n2c(Br)nc(Cl)c2-c2ccc(Cl)c(F)c2)c(Cl)c1` [compound 328] as the compound, how does the “Test I disease control rating” value [1, 8] read?
The value was 94%.

What about the “Test J disease control rating” value [2, 8] of the same compound?
Its value is 98%.

And the “Test F disease control rating” value [3, 8]?
The value was 0%.

And the “Test H disease control rating” value [4, 8]?
Its value is 9%.

What about the “Test D disease control rating” value [5, 8] of the same compound?
Its value is 98%.

And the “Test G disease control rating” value [6, 8]?
The value was 95%.

And the “Test C disease control rating” value [7, 8]?
Its value is 100%.
